{"source": "patent US11806346B2", "about": "“HTT modulators for treating Huntington's disease” (CHDI Foundation, Inc., priority 2020, dated 2023)"}
{"system": "tHTT (total HTT protein)", "assay": "Time-resolved FRET assay, total huntingtin (tHTT) detection in cell lysates", "format": "cell-based, human", "conditions": "Comparator (Comparative Examples 145-147, within scope of WO 2015/197503); GEN020 hESCs, 48 hours; read-out: tHTT EC50", "how_it_was_run": "(§1)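 TR-FRET readout on cell lysates, with the donor/acceptor ratio reflecting relative total HTT.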", "units": {"EC50": "nM"}}
{"smiles": "COc1nc(N2CCNCC2)ccc1C(=O)Nc1cn2cc(C)nc2c(C)n1", "note": "[reference compound]", "EC50": 30000}
{"system": "tHTT (total HTT protein)", "assay": "Time-resolved FRET assay, total huntingtin (tHTT) detection in cell lysates", "format": "cell-based, human", "conditions": "Example (compounds of the instant disclosure); GEN020 hESCs, 48 hours; read-out: tHTT EC50", "how_it_was_run": "as §1", "units": {"EC50": "nM"}}
{"smiles": "Cc1cn2cc(NC(=O)c3cnc(N4CCNCC4)nc3)cc(F)c2n1", "note": "[drawing 1146]", "EC50": 3400}
{"system": "tHTT (total HTT protein)", "assay": "Time-resolved FRET assay, total huntingtin (tHTT) detection in cell lysates", "format": "cell-based, human", "conditions": "GEN020 hESCs (mutant 48 Q repeat allele), compounds added for 48 hours, TR-FRET on lysate; read-out: tHTT EC50", "how_it_was_run": "as §1", "units": {"EC50": "nM"}}
{"smiles": "CN[C@@H]1CCN(c2cnc(C(=O)Nc3cn4cc(C)nc4c(C)c3F)cn2)C1", "note": "[Example 354, N-(7-fluoro-2,8-dimethyl-imidazo[1,2-a]pyridin-6-yl)-5-[(3R)-3-(methylamino)pyrrolidin-1-yl]pyrazine-2-carboxamide]", "EC50": "< 100"}
{"smiles": "Cc1cn2cc(NC(=O)c3cnc(N4CC(C5CCCCN5C)C4)cn3)nc(C)c2n1", "note": "(single isomer, unassigned) [Example 231]", "EC50": "1000 to 10000"}
{"smiles": "Cc1cn2cc(NC(=O)c3cnc(N4CCC(C5CCCN5)CC4)cn3)cc(F)c2n1", "note": "(single isomer, unassigned) [Example 159]", "EC50": "100 to 500"}
{"smiles": "Cc1cn2cc(NC(=O)c3cnc(N4CC(N)C(F)C4)cn3)nc(C)c2n1", "note": "(centres unmarked) [Example 72]", "EC50": "1000 to 10000"}
{"smiles": "Cc1cn2cc(NC(=O)c3cnc(N4C[C@@H](C)N[C@@H](C)C4)cn3)nc(C)c2n1", "note": "[Example 69]", "EC50": "1000 to 10000"}
{"smiles": "CN[C@@H]1CCN(c2ccc(C(=O)Nc3cc(F)c4nc(C)cn4c3)nn2)C1", "note": "[Example 140, (R)—N-(8-Fluoro-2-methylimidazo[1,2-a]pyridin-6-yl)-6-(3-(methyl-amino)pyrrolidin-1-yl)pyridazine-3-carboxamide]", "EC50": "1000 to 10000"}
{"smiles": "Cc1cn2cc(NC(=O)c3cnc(N4CC(F)C(N5CCCC5)C4)cn3)cc(F)c2n1", "note": "(single isomer, unassigned) [Example 119, N-(8-fluoro-2-methylimidazo[1,2-a]pyridin-6-yl)-5-((3′R,4'S)-4′-fluoro-[1,3′-bipyrrolidin]-1′-yl)pyrazine-2-carboxamide]", "EC50": "1000 to 10000"}
{"smiles": "Cc1cn2cc(NC(=O)c3cnc(N4CCC(CN5CCCC5)C4)cn3)cc(F)c2n1", "note": "(centres unmarked) [Example 327]", "EC50": "100 to 500"}
{"smiles": "COc1nc(NC(=O)c2cnc(N3CC[C@H](NCC4CC4)C3)cn2)cn2cc(C)nc12", "note": "[Example 269]", "EC50": "100 to 500"}
{"smiles": "O=C(Nc1cc(F)c2nc(CF)cn2c1)c1cnc(N2CC[C@@H](NC3CC3)C2)cn1", "note": "[Example 186, (R)-5-(3-(cyclopropylamino)pyrrolidin-1-yl)-N-(8-fluoro-2-(fluoromethyl)imidazo[1,2-a]pyridin-6-yl)pyrazine-2-carboxamide]", "EC50": "< 100"}
{"smiles": "CCOc1cc2nn(C)cc2cc1NC(=O)c1cnc(N2CC[C@H](N3CCCC3)C2)cn1", "note": "[Example 93, (S)-5-([1,3′-bipyrrolidin]-1′-yl)-N-(6-ethoxy-2-methyl-2H-indazol-5-yl)pyrazine-2-carboxamide]", "EC50": "100 to 500"}
{"smiles": "COc1nc(NC(=O)c2cnc(N3CC(F)(CN4CCCC4)C3)cn2)cn2cc(C)nc12", "note": "[Example 296, 5-(3-fluoro-3-(pyrrolidin-1-ylmethyl)azetidin-1-yl)-N-(8-methoxy-2-methylimidazo[1,2-a]pyrazin-6-yl)pyrazine-2-carboxamide]", "EC50": "500 to 1000"}
{"smiles": "COc1cc(NC(=O)c2cnc(N3CC[C@@H](NC4CC4)C3)cn2)cn2cc(C)nc12", "note": "[Example 256, (R)-5-(3-(cyclopropylamino)pyrrolidin-1-yl)-N-(8-methoxy-2-methylimidazo[1,2-a]pyridin-6-yl)pyrazine-2-carboxamide]", "EC50": "100 to 500"}
{"smiles": "COC1CN(CC2CN(c3cnc(C(=O)Nc4cc(F)c5nc(C)cn5c4)cn3)C2)C1", "note": "[Example 199]", "EC50": "100 to 500"}
{"smiles": "CN[C@@H]1CCN(c2ncc(C(=O)Nc3cc(F)c4nc(C)cn4c3)cn2)C1", "note": "[Example 128]", "EC50": "100 to 500"}
{"smiles": "CC[C@@H]1CN(c2cnc(C(=O)Nc3cc(F)c4nc(C)cn4c3)cn2)CCN1", "note": "[Example 79]", "EC50": "1000 to 10000"}
{"smiles": "Cc1cn2cc(NC(=O)c3cnc(N4CCC(CNC(C)C)C4)cn3)nc(C)c2n1", "note": "(single isomer, unassigned) [Example 154]", "EC50": "100 to 500"}
{"smiles": "Cc1cn2cc(NC(=O)c3cnc(N4CC5C4CCN5C)cn3)cc(F)c2n1", "note": "(single isomer, unassigned) [Example 310]", "EC50": "100 to 500"}
{"smiles": "CNC[C@@H]1CCN(c2cnc(C(=O)Nc3cc(F)c4nc(C)cn4c3)cn2)C1", "note": "[Example 104]", "EC50": "< 100"}
{"smiles": "COc1cc2nn(C)cc2cc1NC(=O)c1cnc(N2CC[C@H](N3CCCC3)C2)cn1", "note": "[Example 92, (S)-5-([1,3′-Bipyrrolidin]-1′-yl)-N-(6-methoxy-2-methyl-2H-indazol-5-yl)pyrazine-2-carboxamide]", "EC50": "100 to 500"}
{"smiles": "Cc1cn2cc(NC(=O)c3cnc(N4CC5CNCC5C4)nc3)cc(F)c2n1", "note": "(centres unmarked) [Example 134]", "EC50": "500 to 1000"}
{"smiles": "Cc1cn2cc(NC(=O)c3cnc(N4CC5CNCC5C4=O)cn3)nc(C)c2n1", "note": "(racemic) [Example 226]", "EC50": "100 to 500"}
{"smiles": "Cc1cn2cc(NC(=O)c3cnc(N(C)C4CCNCC4)cn3)cc(F)c2n1", "note": "[Example 221, N-(8-Fluoro-2-methylimidazo[1,2-a]pyridin-6-yl)-5-(methyl(piperidin-4-yl)amino)pyrazine-2-carboxamide]", "EC50": "< 100"}
{"smiles": "Cc1cn2cc(NC(=O)c3cnc(N4CC[C@H](NCC5CC5)C4)cn3)nc(C)c2n1", "note": "[Example 270]", "EC50": "100 to 500"}
{"smiles": "Cc1cn2cc(NC(=O)c3cnc(N4CCC(NC5CC5)C4)cn3)c(C(F)F)cc2n1", "note": "(centres unmarked) [Example 370, 5-(3-(cyclopropylamino)pyrrolidin-1-yl)-N-(7-(difluoromethyl)-2-methylimidazo[1,2-a]pyridin-6-yl)pyrazine-2-carboxamide]", "EC50": "1000 to 10000"}
{"smiles": "Cc1cn2cc(NC(=O)c3cnc(N4CC[C@H](N(C)C5CC5)C4)cn3)cc(F)c2n1", "note": "[Example 188]", "EC50": "500 to 1000"}
{"smiles": "Cc1cc2cc(NC(=O)c3cnc(N4CCC(NC5CC5)C4)cn3)ccn2n1", "note": "(single isomer, unassigned) [Example 143, 5-[3-(cyclopropylamino)pyrrolidin-1-yl]-N-(2-methylpyrazolo[1,5-a]pyridin-5-yl)pyrazine-2-carboxamide]", "EC50": "1000 to 10000"}
{"smiles": "Cc1cn2cc(NC(=O)c3cnc(N4CC[C@@H](CNC5CC5)C4)cn3)nc(C)c2n1", "note": "[Example 287, 5-[(3S)-3-[(cyclopropylamino)methyl]pyrrolidin-1-yl]-N-(2,8-dimethylimidazo[1,2-a]pyrazin-6-yl)pyrazine-2-carboxamide]", "EC50": "100 to 500"}
{"smiles": "Cc1cn2cc(NC(=O)c3cnc(N4CC[C@@H](CNCC(F)F)C4)cn3)cc(F)c2n1", "note": "[Example 223]", "EC50": "500 to 1000"}
{"smiles": "Cc1cc2nn(C)cc2cc1NC(=O)c1cnc(N2CCC(NC3CC3)C2)cn1", "note": "(single isomer, unassigned) [Example 115, 5-[3-(cyclopropylamino)pyrrolidin-1-yl]-N-(2,6-dimethylindazol-5-yl)pyrazine-2-carboxamide]", "EC50": "500 to 1000"}
{"smiles": "Cc1cn2cc(NC(=O)c3cnc(N4CCC(CNC5CC5)C4)cn3)cc(F)c2n1", "note": "(single isomer, unassigned) [Example 149]", "EC50": "< 100"}
{"smiles": "Cc1cn2cc(NC(=O)c3cnc(N4CC(CN5CCOCC5)C4)cn3)cc(F)c2n1", "note": "[Example 246, N-(8-fluoro-2-methylimidazo[1,2-a]pyridin-6-yl)-5-(3-(morpholinomethyl)azetidin-1-yl)pyrazine-2-carboxamide]", "EC50": "100 to 500"}
{"smiles": "Cc1cn2cc(NC(=O)c3cnc(N4CC(F)C(N(C)C5CC5)C4)cn3)cc(F)c2n1", "note": "(centres unmarked) [Example 16]", "EC50": "1000 to 10000"}
{"smiles": "COc1cc(NC(=O)c2cnc(N3CC(NC4CC4)C3)cn2)cn2cc(C)nc12", "note": "[Example 374, 5-(3-(cyclopropylamino)azetidin-1-yl)-N-(8-methoxy-2-methylimidazo[1,2-a]pyridin-6-yl)pyrazine-2-carboxamide]", "EC50": "1000 to 10000"}
{"smiles": "Cc1cn2cc(NC(=O)c3cnc(OC4CC(C)(C)NC(C)(C)C4)cn3)cc(F)c2n1", "note": "[Example 173, N-(8-fluoro-2-methylimidazo[1,2-a]pyridin-6-yl)-5-((2,2,6,6-tetramethylpiperidin-4-yl)oxy)pyrazine-2-carboxamide]", "EC50": "500 to 1000"}
{"smiles": "Cc1cn2cc(NC(=O)c3cnc(N4C[C@H](C)NC[C@H]4C)cn3)nc(C)c2n1", "note": "[Example 66]", "EC50": "500 to 1000"}
{"smiles": "O=C(Nc1cc(F)c2nc(CF)cn2c1)c1cnc(N2CC(CNC3CC3)C2)cn1", "note": "[Example 290, 5-(3-((cyclopropylamino)methyl)azetidin-1-yl)-N-(8-fluoro-2-(fluoromethyl)imidazo[1,2-a]pyridin-6-yl)pyrazine-2-carboxamide]", "EC50": "100 to 500"}
{"smiles": "Cc1cn2cc(NC(=O)c3cnc([C@]45CCNC[C@H]4C5)cn3)cc(F)c2n1", "note": "(relative stereo) [Example 369, 5-((1R,6S)-3-azabicyclo[4.1.0]heptan-6-yl)-N-(8-fluoro-2-methylimidazo[1,2-a]pyridin-6-yl)pyrazine-2-carboxamide, 5-((1S,6R)-3-azabicyclo[4.1.0]heptan-6-yl)-N-(8-fluoro-2-methylimidazo[1,2-a]pyridin-6-yl)pyrazine-2-carboxamide]", "EC50": "1000 to 10000"}
{"smiles": "CCNC1CN(c2ncc(C(=O)Nc3cn4cc(C)nc4c(C)n3)cn2)CC1F", "note": "(centres unmarked) [Example 334]", "EC50": "500 to 1000"}
{"smiles": "Cc1cn2cc(NC(=O)c3cnc(N4CCC(NC5CC5)C4)cn3)nc(C)c2n1", "note": "(centres unmarked) [Example 61]", "EC50": "100 to 500"}
{"smiles": "CCN[C@@H]1CCN(c2cnc(C(=O)Nc3cc4cn(C)nc4cc3OCC)cn2)C1", "note": "[Example 254, (R)—N-(6-ethoxy-2-methyl-2H-indazol-5-yl)-5-(3-(ethylamino)pyrrolidin-1-yl)pyrazine-2-carboxamide]", "EC50": "< 100"}
{"smiles": "CNC1CN(c2ncc(C(=O)Nc3cn4cc(C)nc4c(C)n3)cn2)CC1F", "note": "(centres unmarked) [Example 331]", "EC50": "500 to 1000"}
{"smiles": "Cc1cn2cc(NC(=O)c3cnc(C4CCNCC4)cn3)cc(F)c2n1", "note": "[Example 125, N-(8-fluoro-2-methylimidazo[1,2-a]pyridin-6-yl)-5-(piperidin-4-yl)pyrazine-2-carboxamide]", "EC50": "500 to 1000"}
{"smiles": "COc1cc2nc(C)cn2cc1NC(=O)c1cnc(N2CC[C@@H](NC3CC3)C2)cn1", "note": "[Example 262]", "EC50": "100 to 500"}
{"smiles": "Cc1cn2cc(NC(=O)c3cnc(N4CC[C@@H](CNCCC(F)(F)F)C4)cn3)cc(F)c2n1", "note": "[Example 207, (S)—N-(8-fluoro-2-methylimidazo[1,2-a]pyridin-6-yl)-5-(3-(((3,3,3-trifluoropropyl)amino)methyl)pyrrolidin-1-yl)pyrazine-2-carboxamide]", "EC50": "100 to 500"}
